Legend:
[1] = tested on: NSA mice; assay: Hypothermia study (block of CP 55,940-induced hypothermia); type: in vivo; design: Hypothermia 3 mg/kg / Hypothermia 0.3 mg/kg: unit not given here; details: for Hypothermia ID50: block of CP 55,940-induced hypothermia
Experimental: . […] Core body temperatures were then obtained at various time points following CP 55,940 administration. Core body temperature (to the nearest 0.1° C.) was obtained by rectal probe.

[2] = molecular target: native CB1 receptors (Rattus norvegicus, UniProt P20272); assay: CB1 receptor rat binding assay ([3H]SR141716A, rat brain membranes); details: rat brain membranes, [3H]SR141716A; for Ki: read-out: Binding rat pKi (converted)
native CB1 receptors, sequence (P20272 whole entry): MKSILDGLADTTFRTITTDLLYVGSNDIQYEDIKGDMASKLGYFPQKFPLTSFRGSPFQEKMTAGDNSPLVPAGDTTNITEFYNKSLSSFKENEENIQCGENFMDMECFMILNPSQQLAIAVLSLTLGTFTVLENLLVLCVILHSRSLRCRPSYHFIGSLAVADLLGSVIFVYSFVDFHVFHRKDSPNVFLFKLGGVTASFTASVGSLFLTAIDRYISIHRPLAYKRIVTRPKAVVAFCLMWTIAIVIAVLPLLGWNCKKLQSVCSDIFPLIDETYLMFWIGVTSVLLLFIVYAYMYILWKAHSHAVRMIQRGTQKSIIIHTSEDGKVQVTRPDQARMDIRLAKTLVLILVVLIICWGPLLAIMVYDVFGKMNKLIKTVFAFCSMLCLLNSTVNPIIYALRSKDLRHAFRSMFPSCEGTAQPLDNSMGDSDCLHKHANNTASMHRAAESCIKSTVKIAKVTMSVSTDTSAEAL

Row | Structure (SMILES) | Hypothermia 3 mg/kg [1] | Hypothermia 0.3 mg/kg [1] | also measured
1 | CCCCNC(=O)c1ccc2c(c1)N=C(c1ccc(F)c(Cl)c1)c1ccccc1S2 | 94 | – | –
2 | CCCCNC(=O)C1=C/C=C/Sc2cc(F)ccc2/C(c2ccc(Cl)cn2)=N\C=C\1 | 4 | – | –
3 | O=C(NC1CCCCC1)c1ccc2c(c1)N=C(c1ccccc1F)c1ccccc1S2 [drawing 1539] | – | – | Binding rat Inh % [2]: 83%; Ki [2]: 12.6 nM
4 | O=C(NCCc1ccncc1)c1ccc2c(c1)N=C(c1ccc(Cl)s1)c1ccccc1S2 [drawing 1540] | – | – | Binding rat Inh % [2]: 109%; Ki [2]: 12.6 nM
5 | O=C(NCc1cccnc1)c1ccc2c(c1)N=C(c1ccc(F)cc1)c1ccccc1S2 [drawing 1541] | – | – | Binding rat Inh % [2]: 97%; Ki [2]: 12.6 nM
6 | O=C(NC1CCCC1)c1ccc2c(c1)N=C(c1ccc(Cl)s1)c1ccccc1S2 [drawing 1542] | – | – | Binding rat Inh % [2]: 91%; Ki [2]: 12.6 nM
7 | CCOCCNC(=O)c1ccc2c(c1)N=C(c1ccc(C#N)cc1)c1ccccc1S2 [drawing 1543] | – | – | Binding rat Inh % [2]: 64%; Ki [2]: 100 nM
8 | O=C(c1ccc2c(c1)N=C(c1ccc(F)cc1)c1ccccc1S2)N1CCCCC1 [drawing 1544] | – | – | Ki [2]: 100 nM
9 | Cc1ccc(N2CCN(C(=O)c3ccc4c(c3)N=C(c3ccc(Cl)cc3)c3ccccc3S4)CC2)c(C)c1 [drawing 1546] | – | – | Ki [2]: 100 nM
10 | O=C(NC1CCCC1)c1ccc2c(c1)N=C(c1cccc(Cl)c1)c1ccccc1S2 [drawing 1547] | – | – | Binding rat Inh % [2]: 84%; Ki [2]: 12.6 nM
11 | CCOC(=O)N1CCC(NC(=O)c2ccc3c(c2)N=C(c2ccc(Cl)cc2)c2ccccc2S3)CC1 [drawing 1548] | – | – | Ki [2]: 12.6 nM
12 | CCCC1=Nc2cc(C(=O)NCCc3cc(OC)ccc3OC)ccc2Sc2ccccc21 [drawing 1549] | – | – | Ki [2]: 100 nM
13 | COc1ccc(C2=Nc3cc(C(=O)NC(C)C)ccc3Sc3ccccc32)cc1 [drawing 1550] | – | – | Binding rat Inh % [2]: 79%; Ki [2]: 100 nM
14 | O=C(NCc1ccc(Cl)cc1Cl)c1ccc2c(c1)N=C(c1ccccc1F)c1ccccc1S2 [drawing 1551] | – | – | Ki [2]: 100 nM
15 | O=C(NCCCC(F)(F)F)c1ccc2c(c1)N=C(c1ccc(Cl)cc1F)c1ccccc1S2 [drawing 1552] | 55 | 24 | Hypothermia ID50 [1]: 1.3 mg/kg
16 | O=C(NCc1ccco1)c1ccc2c(c1)N=C(c1ccc(F)cc1)c1ccccc1S2 [drawing 1553] | 90 | −11 | Hypothermia ID50 [1]: 1.2 mg/kg
17 | O=C(NCCCC(F)(F)F)c1ccc2c(c1)N=C(c1ccc(Cl)s1)c1ccccc1S2 [drawing 1554] | 73 | 11 | Hypothermia ID50 [1]: 1.7 mg/kg
18 | CCCCNC(=O)c1ccc2c(c1)N=C(c1ccc(Br)cn1)c1ccccc1S2 [drawing 1555] | 80 | – | –
19 | CC(C)CNC(=O)c1ccc2c(c1)N=C(c1ccc(Cl)cc1)c1ccc(F)cc1S2 [drawing 1556] | 41 | – | –
20 | O=C(NCc1ccco1)c1ccc2c(c1)N=C(c1ccc(Cl)s1)c1ccccc1S2 [drawing 1557] | 66 | – | –
21 | O=C(NCc1cccs1)c1ccc2c(c1)N=C(c1ccc(F)cc1)c1ccccc1S2 [drawing 1558] | 90 | 19 | Hypothermia ID50 [1]: 1 mg/kg
22 | O=C(NCc1cccs1)c1ccc2c(c1)N=C(c1cccc(F)c1)c1ccccc1S2 [drawing 1559] | 17 | – | –

Row | Structure (SMILES) | Hypothermia 3 mg/kg [1] | Hypothermia 0.3 mg/kg [1] | also measured
23 | CCCCNC(=O)c1ccc2c(c1)N=C(c1ccc(Cl)cc1)c1ccccc1S2 [drawing 1560] | 82 | 15 | Hypothermia ID50 [1]: 0.79 mg/kg
24 | O=C(NN1CCCCC1)c1ccc2c(c1)N=C(c1ccc(Cl)s1)c1ccccc1S2 [drawing 1561] | 42 | – | –
25 | CCCCNC(=O)c1ccc2c(c1)N=C(c1ccc(Cl)cc1)c1ccc(F)cc1S2 [drawing 1562] | 53 | 11 | –
26 | O=C(NN1CCCCCC1)c1ccc2c(c1)N=C(c1ccc(Cl)cc1F)c1ccccc1S2 [drawing 1563] | 54 | 2 | –
27 | CC(C)CCNC(=O)c1ccc2c(c1)N=C(c1cccc(Cl)c1)c1ccccc1S2 [drawing 1564] | 64 | 35 | –
28 | O=C(NCc1cccnc1)c1ccc2c(c1)N=C(c1ccc(Cl)c(Cl)c1)c1ccccc1S2 [drawing 1565] | 19 | 1 | –
29 | COc1cccc(C2=Nc3cc(C(=O)NCCCC(F)(F)F)ccc3Sc3ccccc32)n1 [drawing 1566] | 46 | – | –
30 | O=C(NCc1ccco1)c1ccc2c(c1)N=C(c1ccc(Cl)c(Cl)c1)c1ccccc1S2 [drawing 1567] | 54 | – | –
31 | CCCCNC(=O)c1ccc2c(c1)N=C(c1ccc(Cl)s1)c1ccccc1S2 [drawing 1568] | 53 | 12 | Hypothermia ID50 [1]: 2.3 mg/kg
32 | O=C(NCCc1cccnc1)c1ccc2c(c1)N=C(c1ccc(Cl)c(Cl)c1)c1ccccc1S2 [drawing 1569] | 41 | – | –
33 | CC(C)CNC(=O)c1ccc2c(c1)N=C(c1ccc(Cl)c(Cl)c1)c1ccccc1S2 [drawing 1570] | 40 | – | –
34 | O=C(NCc1cccc(Cl)c1)c1ccc2c(c1)N=C(c1ccc(F)cc1)c1ccccc1S2(=O)=O [drawing 1571] | 45 | – | –
35 | COc1cccc(C2=Nc3cc(C(=O)NC4CCC(F)(F)CC4)ccc3Sc3ccccc32)n1 [drawing 1572] | 19 | – | –
36 | O=C(NCc1ccccc1Cl)c1ccc2c(c1)N=C(c1cccc(Cl)c1)c1ccccc1S2 [drawing 1573] | −2 | – | –
37 | O=C(NC1CCCCC1)c1ccc2c(c1)N=C(c1cccc(Cl)c1)c1ccccc1S2 [drawing 1574] | 74 | – | –
38 | O=C(NN1CCCCC1)c1ccc2c(c1)N=C(c1ccc(Cl)cc1)c1ccccc1S2 [drawing 1575] | 69 | −18 | –
39 | CC(C)CNC(=O)c1ccc2c(c1)N=C(c1ccc(Cl)cc1F)c1ccccc1S2 [drawing 1576] | 71 | 0 | –
40 | CCCCNC(=O)c1ccc2c(c1)N=C(c1ccc(Cl)s1)c1cc(Cl)ccc1S2 [drawing 1577] | −9 | – | –
41 | CC(C)CNC(=O)c1ccc2c(c1)N=C(c1ccc(Cl)s1)c1ccccc1S2 [drawing 1578] | 73 | 23 | –
42 | CCCCNC(=O)c1ccc2c(c1)N=C(c1cccc(Cl)c1)c1cc(F)ccc1S2 [drawing 1579] | 8 | – | –
43 | O=C(NC1CCCCC1)c1ccc2c(c1)N=C(c1ccc(F)cc1)c1ccccc1S2 [drawing 1580] | 82 | 28 | –
44 | O=C(NCc1ccco1)c1ccc2c(c1)N=C(c1cccc(Cl)c1)c1ccccc1S2 [drawing 1581] | 67 | 24 | Hypothermia ID50 [1]: 1 mg/kg

Row | Structure (SMILES) | Hypothermia 3 mg/kg [1] | Hypothermia 0.3 mg/kg [1] | also measured
45 | O=C(NN1CCCCC1)c1ccc2c(c1)N=C(c1ccc(F)cc1)c1ccccc1S2 [drawing 1582] | 87 | 7 | Hypothermia ID50 [1]: 0.96 mg/kg
46 | O=C(NCc1cccc(Cl)c1)c1ccc2c(c1)N=C(c1ccc(Cl)cc1)c1cc(F)ccc1S2 [drawing 1583] | −4 | 14 | –
47 | O=C(NN1CCCCCC1)c1ccc2c(c1)N=C(c1ccc(Cl)s1)c1ccccc1S2 [drawing 1584] | 83 | 33 | Hypothermia ID50 [1]: 0.59 mg/kg
48 | O=C(NCCc1cccnc1)c1ccc2c(c1)N=C(c1ccc(Cl)s1)c1ccccc1S2 [drawing 1585] | 76 | −14 | Hypothermia ID50 [1]: 1.7 mg/kg
49 | O=C(NN1CCCCCC1)c1ccc2c(c1)N=C(c1cccc(Cl)c1)c1ccccc1S2 [drawing 1586] | 86 | −27 | Hypothermia ID50 [1]: 1.14 mg/kg
50 | CCCNC(=O)c1ccc2c(c1)N=C(c1ccc(Cl)cc1)c1ccccc1S2 [drawing 1588] | 54 | 29 | –
51 | CCCCNC(=O)c1ccc2c(c1)N=C(c1ccc(Cl)s1)c1ccc(Cl)cc1S2 [drawing 1589] | 1 | – | –
52 | O=C(NN1CCCCCC1)c1ccc2c(c1)N=C(c1cccc(F)c1)c1ccccc1S2 [drawing 1590] | 85 | 21 | Hypothermia ID50 [1]: 0.93 mg/kg
53 | O=C(NCCc1ccncc1)c1ccc2c(c1)N=C(c1ccc(Cl)c(Cl)c1)c1ccccc1S2 [drawing 1591] | 41 | – | –
54 | O=C(NN1CCCCC1)c1ccc2c(c1)N=C(C1CCCCC1)c1ccccc1S2 [drawing 1592] | 69 | – | –
55 | CCCCNC(=O)c1ccc2c(c1)N=C(c1cccc(F)c1)c1ccccc1S2 [drawing 1593] | 36 | – | –
56 | Cc1ccc(CNC(=O)c2ccc3c(c2)N=C(c2ccc(Cl)s2)c2ccccc2S3)o1 [drawing 1594] | 16 | – | –
57 | CCCCNC(=O)c1ccc2c(c1)N=C(c1ccc(Cl)cn1)c1ccccc1S2 [drawing 1595] | 53 | – | –
58 | O=C(NC1CCC(F)(F)CC1)c1ccc2c(c1)N=C(c1ccc(Cl)s1)c1ccccc1S2 [drawing 1596] | 51 | – | –
59 | Cc1ccsc1C1=Nc2cc(C(=O)NN3CCCCCC3)ccc2Sc2ccccc21 [drawing 1597] | 18 | – | –
60 | Cc1ccsc1C1=Nc2cc(C(=O)NCCCC(F)(F)F)ccc2Sc2ccccc21 [drawing 1598] | 24 | – | –
61 | COc1ccc(C2=Nc3cc(C(=O)NCC(C)C)ccc3Sc3ccccc32)cc1 [drawing 1599] | 71 | – | –
62 | O=C(NCCCC(F)(F)F)c1ccc2c(c1)N=C(c1ccsc1)c1ccccc1S2 [drawing 1600] | – | 32 | –
63 | CCCCNC(=O)c1ccc2c(c1)N=C(c1ccc(Cl)s1)c1cc(F)ccc1S2 [drawing 1601] | 17 | – | –
64 | CC(C)CCNC(=O)c1ccc2c(c1)N=C(c1cccc(F)c1)c1ccccc1S2 [drawing 1602] | 67 | 0 | –
65 | O=C(NC1CCCCC1)c1ccc2c(c1)N=C(c1ccc(Cl)cc1)c1ccccc1S2 [drawing 1603] | 60 | – | –

Reference: patent US20080090805A1, “CB-1 MODULATING COMPOUNDS AND THEIR USE” (ACADIA PHARMACEUTICALS INC., priority 2005, published 2008)
